Measurements reported in patent publication US20190085024A1, “Alpha-Ketoamide Inhibitors Of Cysteine Proteases” (Phelix Therapeutics, priority 2017, published 2019).

Tests used:
[1] = target: Cathepsin L (Homo sapiens, UniProt P07711); test: Cathepsin L enzyme assay; type: biochemical; details: Ki by Morrison equation; pH 5.5, substrate Z-Phe-Arg-Amc; read-out: Cat L
Text: Two wells contained DMSO only for controls.
Velocity was converted to μM/sec.

[2] = target: Cathepsin B (Homo sapiens, UniProt P07858); test: Cathepsin B enzyme assay; details: Cat B (μM), Ki by Morrison equation; pH 6.0, substrate Z-Phe-Arg-Amc
[3] = target: Calpain; test: Calpain enzyme assay; type: biochemical; details: Ki by Morrison equation; pH 7.5, 5 mM CaCl2

Chain of Cathepsin L (P07711 114-333, species assumed): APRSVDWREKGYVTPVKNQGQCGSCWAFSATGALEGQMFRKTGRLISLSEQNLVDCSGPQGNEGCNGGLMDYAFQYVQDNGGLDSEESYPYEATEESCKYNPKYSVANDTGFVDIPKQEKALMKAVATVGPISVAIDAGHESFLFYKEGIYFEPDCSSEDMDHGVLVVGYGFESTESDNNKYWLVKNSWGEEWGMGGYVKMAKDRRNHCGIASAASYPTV

SMILES | Ki [1] | Ki [2] | Ki [3]
CCC(C)C(NC(=O)C(=O)C(C)NC(=O)Cc1ccccc1)C(=O)NC(C)(C)C(=O)O (centres unmarked) [PHELIX132, 2-methyl-2-(3-methyl-2-(2-oxo-3-(2-phenylacetamido)butanamido)pentanamido)propanoic acid] | 134 µM | 702 µM | 
CC[C@H](C)[C@H](NC(=O)C(=O)C(C)NC(=O)Cc1ccccc1)C(=O)N1CCC[C@H]1C(=O)O (some centres unmarked) [PHELIX138, (2-oxo-3-(2-phenylacetamido)butanoyl)isoleucylproline] | 69.8 µM | 27.8 µM | 
CCC(C)C(NC(=O)C(=O)C(C)(C)NC(=O)Cc1ccccc1)C(=O)NC(C)(C)C(=O)O (centres unmarked) [PHELIX139, 2-methyl-2-(3-methyl-2-(3-methyl-2-oxo-3-(2-phenylacetamido)butanamido)pentanamido)propanoic acid] | 57.4 µM | 1130 µM | 
CC[C@H](C)[C@H](NC(=O)C(=O)C(C)NC(=O)C(Cc1ccccc1)NC(=O)Cc1ccccc1)C(=O)N1CCC[C@H]1C(=O)O (some centres unmarked) [PHELIX155, (2-oxo-3-(3-phenyl-2-(2-phenylacetamido)propanamido)butanoyl)isoleucylproline] | 0.3 µM | 0.0215 µM | 
CC(NC(=O)C(Cc1ccccc1)NC(=O)Cc1ccccc1)C(=O)C(=O)NC(Cc1ccc2ccccc2c1)C(=O)NC(C)(C)C(=O)O (centres unmarked) [PHELIX158, 12-benzyl-2,2,9-trimethyl-5-(naphthalen-2-ylmethyl)-4,7,8,11,14-pentaoxo-15-phenyl-3,6,10,13-tetraazapentadecanoic acid] | 0.141 µM | 0.439 µM | 
CCC(C)C(NC(=O)C(CC(C)C)NC(=O)C(Cc1ccccc1)NC(=O)Cc1ccncc1)C(=O)C(=O)NC(CCCNC(=N)N)C(N)=O (centres unmarked) [PHELIX346, N-(1-amino-5-guanidino-1-oxopentan-2-yl)-4-methyl-3-(4-methyl-2-(3-phenyl-2-(2-(pyridin-4-yl)acetamido)propanamido)pentanamido)-2-oxohexanamide] | 0.00328 µM |  | 0.00171 µM
CCC(C)C(NC(=O)C(CC(C)C)NC(=O)OCc1ccccc1)C(=O)C(=O)NCC(=O)NC(Cc1cccc(F)c1)C(N)=O (centres unmarked) [PHELIX348, benzyl (1-((1-((2-((1-amino-3-(3-fluorophenyl)-1-oxopropan-2-yl)amino)-2-oxoethyl)amino)-4-methyl-1,2-dioxohexan-3-yl)amino)-4-methyl-1-oxopentan-2-yl)carbamate] | 0.00276 µM |  | 0.00168 µM
CCC(C)C(NC(=O)C(CC(C)C)NC(=O)OCc1ccccc1)C(=O)C(=O)NCC(=O)NC(Cc1ccc(F)cc1)C(N)=O (centres unmarked) [PHELIX349, benzyl (1-((1-((2-((1-amino-3-(4-fluorophenyl)-1-oxopropan-2-yl)amino)-2-oxoethyl)amino)-4-methyl-1,2-dioxohexan-3-yl)amino)-4-methyl-1-oxopentan-2-yl)carbamate] | 0.00211 µM |  | 0.00227 µM
CCC(C)C(NC(=O)C(CC(C)C)NC(=O)OCc1ccccc1)C(=O)C(=O)NCC(=O)NC(Cc1ccc(C#N)cc1)C(N)=O (centres unmarked) [PHELIX350, benzyl (1-((1-((2-((1-amino-3-(4-cyanophenyl)-1-oxopropan-2-yl)amino)-2-oxoethyl)amino)-4-methyl-1,2-dioxohexan-3-yl)amino)-4-methyl-1-oxopentan-2-yl)carbamate] | 0.0042 µM |  | 0.00345 µM
CCC(C)C(NC(=O)C(CC(C)C)NC(=O)Cc1cccnc1)C(=O)C(=O)NCC(=O)N(C)C(Cc1ccccc1)C(N)=O (centres unmarked) [PHELIX351, N-(2-((1-amino-1-oxo-3-phenylpropan-2-yl)(methyl)amino)-2-oxoethyl)-4-methyl-3-(4-methyl-2-(2-(pyridin-3-yl)acetamido)pentanamido)-2-oxohexanamide] | 0.00045 µM |  | 0.0003 µM
CCC(C)C(NC(=O)C(CC(C)C)NC(=O)CN1CCOCC1)C(=O)C(=O)NCC(=O)N(C)C(Cc1ccccc1)C(N)=O (centres unmarked) [PHELIX352, N-(2-((1-amino-1-oxo-3-phenylpropan-2-yl)(methyl)amino)-2-oxoethyl)-4-methyl-3-(4-methyl-2-(2-morpholinoacetamido)pentanamido)-2-oxohexanamide] | 0.00048 µM |  | 0.00193 µM
CCC(C)C(NC(=O)C(CC(C)C)NC(=O)Cc1ccncc1)C(=O)C(=O)NCC(=O)N(C)C(Cc1ccccc1)C(N)=O (centres unmarked) [PHELIX353, N-(2-((1-amino-1-oxo-3-phenylpropan-2-yl)(methyl)amino)-2-oxoethyl)-4-methyl-3-(4-methyl-2-(2-(pyridin-4-yl)acetamido)pentanamido)-2-oxohexanamide] | 0.00055 µM |  | 0.00303 µM
CCC(C)C(NC(=O)C(CC(C)C)NC(=O)CN1CCOCC1)C(=O)C(=O)NC(Cc1ccc2ccccc2c1)C(N)=O (centres unmarked) [PHELIX354, N-(1-amino-3-(naphthalen-2-yl)-1-oxopropan-2-yl)-4-methyl-3-(4-methyl-2-(2-morpholinoacetamido)pentanamido)-2-oxohexanamide] | 0.0196 µM |  | 0.0101 µM
CCC(C)C(NC(=O)C(CC(C)C)NC(=O)OCc1ccccc1)C(=O)C(=O)NCC(=O)NC(Cc1ccc(OC)cc1)C(N)=O (centres unmarked) [PHELIX355, benzyl (1-((1-((2-((1-amino-3-(4-methoxyphenyl)-1-oxopropan-2-yl)amino)-2-oxoethyl)amino)-4-methyl-1,2-dioxohexan-3-yl)amino)-4-methyl-1-oxopentan-2-yl)carbamate] | 0.00157 µM |  | 0.00171 µM
CCC(C)C(NC(=O)C(CC(C)C)NC(=O)OCc1ccccc1)C(=O)C(=O)NCC(=O)NC(Cc1cccnc1)C(N)=O (centres unmarked) [PHELIX356, benzyl (1-((1-((2-((1-amino-1-oxo-3-(pyridin-3-yl)propan-2-yl)amino)-2-oxoethyl)amino)-4-methyl-1,2-dioxohexan-3-yl)amino)-4-methyl-1-oxopentan-2-yl)carbamate] | 0.0112 µM |  | 0.00917 µM
CCC(C)C(NC(=O)C(CC(C)C)NC(=O)OCc1ccccc1)C(=O)C(=O)NCC(=O)NC(Cc1ccncc1)C(N)=O (centres unmarked) [PHELIX357, benzyl (1-((1-((2-((1-amino-1-oxo-3-(pyridin-4-yl)propan-2-yl)amino)-2-oxoethyl)amino)-4-methyl-1,2-dioxohexan-3-yl)amino)-4-methyl-1-oxopentan-2-yl)carbamate] | 0.00439 µM |  | 0.0155 µM
CCC(C)C(NC(=O)C(CC(C)C)NC(=O)OCc1ccccc1)C(=O)C(=O)NC(Cc1cccc(F)c1)C(N)=O (centres unmarked) [PHELIX359, benzyl (1-((1-((1-amino-3-(3-fluorophenyl)-1-oxopropan-2-yl)amino)-4-methyl-1,2-dioxohexan-3-yl)amino)-4-methyl-1-oxopentan-2-yl)carbamate] | 0.00073 µM |  | 0.00203 µM
CCC(C)C(NC(=O)C(CC(C)C)NC(=O)OCc1ccccc1)C(=O)C(=O)NC(Cc1ccc2ccccc2c1)C(=O)N(C)C (centres unmarked) [PHELIX360, benzyl (1-((1-((1-(dimethylamino)-3-(naphthalen-2-yl)-1-oxopropan-2-yl)amino)-4-methyl-1,2-dioxohexan-3-yl)amino)-4-methyl-1-oxopentan-2-yl)carbamate] | 0.0291 µM |  | 0.0441 µM
CCC(C)C(NC(=O)C(CC(C)C)NC(=O)OCc1ccccc1)C(=O)C(=O)NC(Cc1ccc2ccccc2c1)C(=O)NC1CC1 (centres unmarked) [PHELIX361, benzyl (1-((1-((1-(cyclopropylamino)-3-(naphthalen-2-yl)-1-oxopropan-2-yl)amino)-4-methyl-1,2-dioxohexan-3-yl)amino)-4-methyl-1-oxopentan-2-yl)carbamate] | 0.0237 µM |  | 0.0415 µM
CCC(C)C(NC(=O)C(CC(C)C)NC(=O)OCc1ccccc1)C(=O)C(=O)N1CC(C(=O)NCc2cncnc2)C1 (centres unmarked) [PHELIX362, benzyl (4-methyl-1-((4-methyl-1,2-dioxo-1-(3-((pyrimidin-5-ylmethyl)carbamoyl)azetidin-1-yl)hexan-3-yl)amino)-1-oxopentan-2-yl)carbamate] | 0.157 µM |  | 0.63 µM
CCC(C)C(NC(=O)C(CC(C)C)NC(=O)OCc1ccccc1)C(=O)C(=O)N1CC(C(=O)NCc2ccc3ccccc3c2)C1 (centres unmarked) [PHELIX363, benzyl (4-methyl-1-((4-methyl-1-(3-((naphthalen-2-ylmethyl)carbamoyl)azetidin-1-yl)-1,2-dioxohexan-3-yl)amino)-1-oxopentan-2-yl)carbamate] | 0.0194 µM |  | 0.178 µM
CCC(C)C(NC(=O)C(CC(C)C)NC(=O)OCc1ccccc1)C(=O)C(=O)N1CC(C(=O)NCc2n[nH]c3c2CCC3)C1 (centres unmarked) [PHELIX364, benzyl (4-methyl-1-((4-methyl-1,2-dioxo-1-(3-(((1,4,5,6-tetrahydrocyclopenta[c]pyrazol-3-yl)methyl)carbamoyl)azetidin-1-yl)hexan-3-yl)amino)-1-oxopentan-2-yl)carbamate] | 0.117 µM |  | 0.0321 µM
CCC(C)C(NC(=O)C(CC(C)C)NC(=O)Cc1cncnc1)C(=O)C(=O)NCC(=O)NC(Cc1ccc2ccccc2c1)C(N)=O (centres unmarked) [PHELIX365, N-(2-((1-amino-3-(naphthalen-2-yl)-1-oxopropan-2-yl)amino)-2-oxoethyl)-4-methyl-3-(4-methyl-2-(2-(pyrimidin-5-yl)acetamido)pentanamido)-2-oxohexanamide] | 0.0179 µM |  | 0.00621 µM
CCC(C)C(NC(=O)C(CC(C)C)NC(=O)OCc1ccccc1)C(=O)C(=O)N1CC(C(=O)NCc2ccc(C(=N)N)cc2)C1 (centres unmarked) [PHELIX366, benzyl (1-((1-(3-((4-carbamimidoylbenzyl)carbamoyl)azetidin-1-yl)-4-methyl-1,2-dioxohexan-3-yl)amino)-4-methyl-1-oxopentan-2-yl)carbamate] | 0.137 µM |  | 0.442 µM
CC[C@H](C)C(NC(=O)[C@H](CC(C)C)NC(=O)OCc1ccccc1)C(=O)C(=O)N1CC(C(=O)O)C1 (some centres unmarked) [PHELIX367, 1-(3-(2-(((benzyloxy)carbonyl)amino)-4-methylpentanamido)-4-methyl-2-oxohexanoyl)azetidine-3-carboxylic acid] | 0.906 µM |  | > 1 µM
